Laboratory results as given in US20110166121A1 (LG LIFE SCIENCES LTD., priority 2008, published 2011).
pKi: −log10 of the molar value. Structures can show the parent of a compound that is named as a salt.

test system: Human platelet aggregation caused by ADP; experiment: Inhibition of ADP-induced platelet aggregation (Mimic-human PRP); format: cell-based; conditions: 20 μM ADP, human platelet concentrate diluted with PPP, absorption at 595 nm
Method: Platelet Preparation for Aggregation Studies
Human platelet aggregation reaction test is a functional experiment method to verify whether a test compound is an agonist or an antagonist to ADP receptor. […] The platelet product isolated from whole blood was purchased from Chung-Nam blood center (Dae-joen, South Korea). The platelet was isolated from 400 mL of whole blood containing 56 mL of CPDA-1 anticoagulant. To isolate the platelet product, 400 mL of whole blood was centrifuged at 260×g for 5 minutes, and then obtained PRP (platelet rich plasma) was secondary centrifuged at 370×g for 6 minutes. Platelet pellet (10^9/mL) was suspended with 45 mL of plasma and then agitated over 1 hour at 22° C. blood reservoir to stabilize it. The stabilized platelet product was used in the experiment within 24 hours. PCs (Platelet Concentrates) were gently transferred to a new 50 ml-falcon tube. The number of platelet was counted by using animal blood counter (ABC Vet, ABX diagnostics, France). The volume of 30 mL of PCs collected from same donor was centrifuged at 1500 g for 10 min at room temperature to prepare platelet-poor plasma (PPP). The platelet count was adjusted to platelet number of 3˜4×10^8/mL by diluting with PPP.
Evaluation on Inhibitory Effect of ADP-Induced Aggregation
Inhibition of ADP-induced aggregation was determined in 96-well flat-bottom plates (Costar, USA) at room temperature. The diluted platelet was aliquoted into each well of 96 well plate in the volume of 188 μl. […] The platelet including test compounds was immediately mixed on a shaker at 1050 rpm for 1 min and incubated at room temperature for 20 min. Then, 10 μL volume of 400 μM ADP was added: the final concentration of 20 μM ADP in the total reaction volume of 0.2 mL/well. After shaking of the plate at room temperature for 3 min, the absorption of the samples was determined at 595 nm using a microtiter plate reader (Softmax, Molecular Devices).
A dose-dependent curve on serial dilutions of ADP was accomplished by adding vehicle (DMSO) instead of antagonists in order to calculate EC50 of ADP. Inhibition of aggregation was calculated from the increase of absorption at 595 nm at 3 min of the reaction incubation, compared to results of absorption between the 0 and 20 μM ADP control without antagonists. Sigmoidal dose-response curves and Ki were derived by non-linear regression analysis using the Prism software (GraphPad, San Diego Calif.).

Compound	pKi
CCCc1cc2c(N3CCn4c(nnc4C(F)(F)F)C3)nc(N3CC(O)C(NC(=O)C(C)(C)CO)C3)nc2s1 (stereo not drawn) [Example 7-25, 3-Hydroxy-N-{4-hydroxy-1-[6-propyl-4-(3-trifluoromethyl-5,6-dihydro-8H-[1,2,4]triazolo[4,3-a]pyrazin-7-yl)-thieno[2,3-d]pyrimidin-2-yl]-pyrrolidin-3-yl}-2,2-dimethyl-propionamide]	7.74
CCCc1cc2c(N3CCn4c(nnc4C(F)(F)F)C3)nc(OCCC(=O)N3CCCC3)nc2s1 [Example 9-68, 3-[6-Propyl-4-(3-trifluoromethyl-5,6-dihydro-8H-[1,2,4]triazolo[4,3-a]pyrazin-7-yl)-thieno[2,3-d]pyrimidin-2-yloxy]-1-pyrrolidin-1-yl-propan-1-one]	6.59
CCCc1cc2c(N3CCn4c(nnc4C(F)(F)F)C3)nc(N3CC[C@H](C(=O)NN)C3)nc2s1 [Example 9-72, (S)-1-[6-Propyl-4-(3-trifluoromethyl-5,6-dihydro-8H-[1,2,4]triazolo[4,3-a]pyrazin-7-yl)-thieno[2,3-d]pyrimidin-2-yl]-pyrrolidine-3-carboxylic acid hydrazide]	9.22
CCCC(=O)N1CC[C@H](COc2nc(N3CCn4c(nnc4C(F)(F)F)C3)c3cc(CCC)sc3n2)C1 [Example 8-38, 1-{(S)-3-[6-Propyl-4-(3-trifluoromethyl-5,6-dihydro-8H-[1,2,4]triazolo[4,3-a]pyrazin-7-yl)-thieno[2,3-d]pyrimidin-2-yloxymethyl]-pyrrolidin-1-yl}-butan-1-one]	6.96
CCCc1cc2c(N3CCn4c(nnc4C(F)(F)F)C3)nc(OCCn3cncn3)nc2s1 [Example 9-44, 7-[6-Propyl-2-(2-[1,2,4]triazol-1-yl-ethoxy)-thieno[2,3-d]pyrimidin-4-yl]-3-trifluoromethyl-5,6,7,8-tetrahydro-[1,2,4]triazolo[4,3-a]pyrazine]	8.01
CCCc1cc2c(N3CCn4c(nnc4C(F)(F)F)C3)nc(N)nc2s1 [Example 9-38, 6-Propyl-4-(3-trifluoromethyl-5,6-dihydro-8H-[1,2,4]triazolo[4,3-a]pyrazin-7-yl)-thieno[2,3-d]pyrimidin-2-ylamine]	7.31
CCCC(=O)NC1CN(c2nc(N3CCn4c(nnc4C(F)(F)F)C3)c3cc(CCC)sc3n2)CC1O (stereo not drawn) [Example 7-19, N-{4-Hydroxy-1-[6-propyl-4-(3-trifluoromethyl-5,6-dihydro-8H-[1,2,4]triazolo[4,3-a]pyrazin-7-yl)-thieno[2,3-d]pyrimidin-2-yl]-pyrrolidin-3-yl}-butyramide]	8.30
CCCc1cc2c(N3CCn4c(nnc4C(F)(F)F)C3)nc(OCCN(CCO)C(=O)OC)nc2s1 [Example 9-98, (2-Hydroxy-ethyl)-{2-[6-propyl-4-(3-trifluoromethyl-5,6-dihydro-8H-[1,2,4]triazolo[4,3-a]pyrazin-7-yl)-thieno[2,3-d]pyrimidin-2-yloxy]-ethyl}-carbamic acid methyl ester]	7.64
CCCc1cc2c(N3CCn4c(nnc4C(F)(F)F)C3)nc(N(C)CCNC(=O)OC)nc2s1 [Example 9-42, (2-{Methyl-[6-propyl-4-(3-trifluoromethyl-5,6-dihydro-8H-[1,2,4]triazolo[4,3-a]pyrazin-7-yl)-thieno[2,3-d]pyrimidin-2-yl]-amino}-ethyl)-carbamic acid methyl ester]	7.57
CCCc1cc2c(N3CCn4c(nnc4C(F)(F)F)C3)nc(N(CCO)CC(=O)O)nc2s1 [Example 1-118, {(2-Hydroxy-ethyl)-[6-propyl-4-(3-trifluoromethyl-5,6-dihydro-8H-[1,2,4]triazolo[4,3-a]pyrazin-7-yl)-thieno[2,3-d]pyrimidin-2-yl]-amino}-acetic acid]	7.47
CCCc1cc2c(N3CCn4c(nnc4C(F)(F)F)C3)nc(N3CCS(=O)(=O)CC3)nc2s1 [Example 1-124, 7-[2-(1,1-Dioxo-1lambda*6*-thiomorpholin-4-yl)-6-propyl-thieno[2,3-d]pyrimidin-4-yl]-3-trifluoromethyl-5,6,7,8-tetrahydro-[1,2,4]triazolo[4,3-a]pyrazine]	8.41
CCCc1cc2c(N3CCn4c(nnc4C(F)(F)F)C3)nc(N3CC[C@@H](NC(=O)OC)C3)nc2s1 [Example 9-20, {(R)-1-[6-Propyl-4-(3-trifluoromethyl-5,6-dihydro-8H-[1,2,4]triazolo[4,3-a]pyrazin-7-yl)-thieno[2,3-d]pyrimidin-2-yl]-pyrrolidin-3-yl}-carbamic acid methyl ester]	8.22
CCCc1cc2c(N3CCn4c(nnc4C(F)(F)F)C3)nc(-n3cnc(CCN)c3)nc2s1 [Example 9-46, 2-{1-[6-Propyl-4-(3-trifluoromethyl-5,6-dihydro-8H-[1,2,4]triazolo[4,3-a]pyrazin-7-yl)-thieno[2,3-d]pyrimidin-2-yl]-1H-imidazol-4-yl}-ethylamine]	6.28
CCCc1cc2c(N3CCn4c(nnc4C(F)(F)F)C3)nc(OCCC#N)nc2s1 [Example 9-71, 3-[6-Propyl-4-(3-trifluoromethyl-5,6-dihydro-8H-[1,2,4]triazolo[4,3-a]pyrazin-7-yl)-thieno[2,3-d]pyrimidin-2-yloxy]-propionitrile]	9.15
CCCc1cc2c(N3CCn4c(nnc4C(F)(F)F)C3)nc(OCC(F)(F)F)nc2s1 [Example 9-84, 7-[6-Propyl-2-(2,2,2-trifluoro-ethoxy)-thieno[2,3-d]pyrimidin-4-yl]-3-trifluoromethyl-5,6,7,8-tetrahydro-[1,2,4]triazolo[4,3-a]pyrazine]	6.17
CCCc1cc2c(N3CCn4c(nnc4C(F)(F)F)C3)nc(N3CC(O)C(NC=O)C3)nc2s1 (stereo not drawn) [Example 9-28, N-{4-Hydroxy-1-[6-propyl-4-(3-trifluoromethyl-5,6-dihydro-8H-[1,2,4]triazolo[4,3-a]pyrazin-7-yl)-thieno[2,3-d]pyrimidin-2-yl]-pyrrolidin-3-yl}-formamide]	9.80
CCCc1cc2c(N3CCn4c(nnc4C(F)(F)F)C3)nc(N3CC[C@H](NC(=O)NS(=O)(=O)c4ccc(Cl)s4)C3)nc2s1 [Example 9-17]	7.72
CCCc1cc2c(N3CCn4c(nnc4C(F)(F)F)C3)nc(OCCNC(N)=O)nc2s1 [Example 9-27, {2-[6-Propyl-4-(3-trifluoromethyl-5,6-dihydro-8H-[1,2,4]triazolo[4,3-a]pyrazin-7-yl)-thieno[2,3-d]pyrimidin-2-yloxy]-ethyl}-urea]	8.19
CCCC(=O)N[C@@H]1CCN(c2nc(N3CCn4c(nnc4C(F)(F)F)C3)c3cc(CCC)sc3n2)C1 [Example 7-4, Hydrochloric acid salt of N-{(R)-1-[6-Propyl-4-(3-trifluoromethyl-5,6-dihydro-8H-[1,2,4]triazolo[4,3-a]pyrazin-7-yl)-thieno[2,3-d]pyrimidin-2-yl]-pyrrolidin-3-yl}-butyramide]	7.12
CCCc1cc2c(N3CCn4c(nnc4C(F)(F)F)C3)nc(OCCN(C=O)CCO)nc2s1 [Example 9-101, N-(2-Hydroxy-ethyl)-N-{2-[6-propyl-4-(3-trifluoromethyl-5,6-dihydro-8H-[1,2,4]triazolo[4,3-a]pyrazin-7-yl)-thieno[2,3-d]pyrimidin-2-yloxy]-ethyl}-formamide]	7.92
CCCc1cc2c(N3CCn4c(nnc4C(F)(F)F)C3)nc(N3CC[C@H](NC(=O)C4CCCC4)C3)nc2s1 [Example 9-5, Cyclopentanecarboxylic Acid {(S)-1-[6-propyl-4-(3-trifluoromethyl-5,6-dihydro-8H-[1,2,4]triazolo[4,3-a]pyrazin-7-yl)-thieno[2,3-d]pyrimidin-2-yl]-pyrrolidin-3-yl}-amide]	6.89
CCCCNC(=O)[C@H]1CCN(c2nc(N3CCn4c(nnc4C(F)(F)F)C3)c3cc(CCC)sc3n2)C1 [Example 9-62, (S)-1-[6-Propyl-4-(3-trifluoromethyl-5,6-dihydro-8H-[1,2,4]triazolo[4,3-a]pyrazin-7-yl)-thieno[2,3-d]pyrimidin-2-yl]-pyrrolidine-3-carboxylic acid butylamide]	6.40
CCCc1cc2c(N3CCn4c(nnc4C(F)(F)F)C3)nc(OCCNCC(=O)OCC)nc2s1 [Example 3-54, {2-[6-Propyl-4-(3-trifluoromethyl-5,6-dihydro-8H-[1,2,4]triazolo[4,3-a]pyrazin-7-yl)-thieno[2,3-d]pyrimidin-2-yloxy]-ethylamino}-acetic acid ethyl ester]	6.69
CCCc1cc2c(N3CCn4c(nnc4C(F)(F)F)C3)nc(N3CCC(NC(C)=O)CC3)nc2s1 [Example 7-12, Hydrochloric acid salt of N-{1-[6-Propyl-4-(3-trifluoromethyl-5,6-dihydro-8H-[1,2,4]triazolo[4,3-a]pyrazin-7-yl)-thieno[2,3-d]pyrimidin-2-yl]-piperidin-4-yl}-acetamide]	7.46
